# System: PBMCs and HCV peptide-specific T cell lines from HCV-infected subjects
# Assay type: cell-based, human
Substance,"T cell response to peptide, in words",response to positive control
HSKRKCDEL,no detectable response,
phytohemagglutinin,,uniformly positive
